Measured values from patent US9072746B2, “Method for enhancing learning and memory impaired by neurodegenerative disorders and compounds and compositions for effecting the same” (The Board of Trustees of the Leland Stanford Junior …, priority 2010, dated 2015).
Entries after “also recorded” stand apart in the source; their conditions may differ.

Tests used:
Type in all cases: in vivo
male 2N mice [1] = experiment: Exploratory activity in novel environment (Activity Chamber)
Protocol: (§1) The Activity Chamber (Med associates Inc., St. Albans, Vt.) was used for the evaluation of general activity, gross locomotor activity, and exploratory behavior. Assessment took place in a square arena, 43.2×43.2 cm, with 3 planes of infrared detectors within a specially designed sound attenuating chamber, 66×55.9×55.9 cm, under dim light. The animal was placed in the center of the testing arena and allowed to move freely for 30 minutes while being tracked by an automated tracking system. Distance moved, velocity, resting time, and vertical count (rearing) were recorded. […] In this part of the study, activity chamber and three cognitive tests, including T-maze spontaneous alternation, contextual fear conditioning (CFC), and novel object recognition were performed. In T-maze spontaneous alternation and contextual fear conditioning, both Ts65Dn and 2N male mice were divided into three treatment groups including normal saline (Vehicle), xamoterol, and betaxolol plus xamoterol groups. In the novel object recognition test, both Ts65Dn and 2N male mice were divided into two treatment groups, normal saline and xamoterol. The T-maze was performed exactly as previously described. […] On the first day (training day), animals were placed in the fear conditioning chamber, and after a 3-minute pre-shock period, they were exposed to 5 shocks (2 s, 0.5 mA,) with inter-trial intervals of 80 seconds and no tone. On the second day, the animals first received xamoterol, xamoterol plus betaxolol, or saline injection, and one hour later, they were placed in the same chamber for 5 minutes. Similar to the previous description of fear conditioning, freezing was defined as the complete lack of motion for a minimum of o.75 second. The Novel Object Recognition task is conducted in an open field arena (40 cm×40 cm). Mice were habituated in the testing room for 1 hour followed by 5 minutes habituation inside the arena without any objects. On 4th day animals were introduced 3 times to arena with 3 identical subjects for 10 minutes with 3 minutes inter trial intervals. On 5th day (24 hours after trainings) one of the objects replaced by a novel one and the time sniffing of each object were used for analysis. For testing the role of β1 adrenergic system, xamoterol and betaxolol (Tocris Bioscience, Ellisville, Mo.) were injected subcutaneously using 10 ml/kg normal saline as vehicle. Xamoterol, (3 mg/kg) was given one hour before testing and betaxolol (1 mg/kg) was given 30 minutes before testing.

male Ts65Dn mice [2] = experiment: as above; conditions: for effect on locomotor activity (total ambulatory distance moved): xamoterol 3 mg/kg s.c.
Protocol: as §1

male 2N mice [3] = experiment: Novel object recognition; conditions: xamoterol 3 mg/kg s.c.
Protocol: (§2) In this part of the study, activity chamber and three cognitive tests, including T-maze spontaneous alternation, contextual fear conditioning (CFC), and novel object recognition were performed. In T-maze spontaneous alternation and contextual fear conditioning, both Ts65Dn and 2N male mice were divided into three treatment groups including normal saline (Vehicle), xamoterol, and betaxolol plus xamoterol groups. In the novel object recognition test, both Ts65Dn and 2N male mice were divided into two treatment groups, normal saline and xamoterol. The T-maze was performed exactly as previously described. […] On the first day (training day), animals were placed in the fear conditioning chamber, and after a 3-minute pre-shock period, they were exposed to 5 shocks (2 s, 0.5 mA,) with inter-trial intervals of 80 seconds and no tone. On the second day, the animals first received xamoterol, xamoterol plus betaxolol, or saline injection, and one hour later, they were placed in the same chamber for 5 minutes. Similar to the previous description of fear conditioning, freezing was defined as the complete lack of motion for a minimum of o.75 second. The Novel Object Recognition task is conducted in an open field arena (40 cm×40 cm). Mice were habituated in the testing room for 1 hour followed by 5 minutes habituation inside the arena without any objects. On 4th day animals were introduced 3 times to arena with 3 identical subjects for 10 minutes with 3 minutes inter trial intervals. On 5th day (24 hours after trainings) one of the objects replaced by a novel one and the time sniffing of each object were used for analysis. For testing the role of β1 adrenergic system, xamoterol and betaxolol (Tocris Bioscience, Ellisville, Mo.) were injected subcutaneously using 10 ml/kg normal saline as vehicle. Xamoterol, (3 mg/kg) was given one hour before testing and betaxolol (1 mg/kg) was given 30 minutes before testing.

male Ts65Dn mice [4] = experiment: Novel object recognition; conditions: xamoterol 3 mg/kg s.c.
Protocol: as §2

C57Bl/6J mice = experiment: Contextual fear conditioning memory retrieval (FIG. 10A, B); conditions: betaxolol 1 mg/kg s.c.
Protocol: In all experiments xamoterol 3 mg/kg, atenolol 3 mg/kg, and betaxolol 1 mg/kg were injected subcutaneously. […] Results are shown as mean+SEM (ns=not significant, *=p<0.05, and **=p<0.01).

[5] = Plasma and brain sample analysis after subcutaneous injection (FIG. 10C, D); conditions: after subcutaneous injection of 3 mg/kg
Protocol: FIG. 10 Xamoterol improves the memory retrieval dose-dependently by interaction with the adrenergic receptors in central nervous system. […] In all experiments xamoterol 3 mg/kg, atenolol 3 mg/kg, and betaxolol 1 mg/kg were injected subcutaneously. […] Results are shown as mean+SEM (ns=not significant, *=p<0.05, and **=p<0.01).

[6] = xamoterol 3 mg/kg s.c. one hour before testing

## O=C(NCCNCC(O)COc1ccc(O)cc1)N1CCOCC1 (stereo not shown) [xamoterol]
Male 2N mice [1]; xamoterol 3 mg/kg s.c.
  effect on locomotor activity (total ambulatory distance moved): no significant effect
Male 2N mice [1]; [6]
  Total Ambulatory Distance Moved in Activity Chamber (cm), Mean ± SEM: 2554 ± 192 cm
Male Ts65Dn mice [2]
  effect on locomotor activity (total ambulatory distance moved): no significant effect
Male Ts65Dn mice [2]; [6]
  Total Ambulatory Distance Moved in Activity Chamber (cm), Mean ± SEM: 3878 ± 765 cm
Male Ts65Dn mice [2]; listed as Xamoterol
  effect on locomotor activity (total ambulatory distance moved): did not show a significant effect
Male Ts65Dn mice [2]; listed as Xamoterole
  effect on locomotor activity (total ambulatory distance moved): Xamoterole has no effect on activity
Male 2N mice [3]; 2N mice
  effect on novel object recognition performance: had no effect
Male 2N mice [3]; male 2N mice
  % of Total Investigation in Novel Object Recognition, Mean ± SEM: 78.6 ± 2.6%
Male Ts65Dn mice [4]
  % of Total Investigation in Novel Object Recognition, Mean ± SEM: 73.6 ± 4.2%
  effect on novel object recognition deficit: completely rescue; also recorded: corrected
Male Ts65Dn mice [4]; listed as Xamoterol
  effect on novel object recognition deficit: could correct
C57Bl/6J mice
  reversal of betaxolol-induced impairment of memory retrieval: reverse the impairment dose-dependently
[5]
  access to blood and brain (plasma and brain samples): can get access to blood and brain
